Assay: Stability of the R,R′-atracurium salts in a closed vial at room temperature, monitored by HPLC
Assay type: physicochemical
Conditions: solid salt; for % content of the 1R-cis,1′R-cis isomer in the sample, After 19 days / % content of the 1R-cis,1′R-cis isomer in the sample, After 34 days / % content of the 1R-cis,1′R-cis isomer in the sample, After 47 days: HPLC; for % content of the 1R-cis,1′R-cis isomer in the sample, Reference sample (t0): t0, HPLC
From the text: 1 g of the R,R′-atracurium salt was placed in a closed vial, which was left aside at room temperature. From time to time the vial was opened and a sample was withdrawn and monitored by HPLC. The results are summarized in Table 3 and expressed as % content of the 1R-cis,1′R-cis isomer in the sample as function of the elapsed time, as measured by HPLC.

COc1ccc(C[C@@H]2c3cc(OC)c(OC)cc3CC[N+]2(C)CCC(=O)OCCCCCOC(=O)CC[N+]2(C)CCc3cc(OC)c(OC)cc3[C@H]2Cc2ccc(OC)c(OC)c2)cc1OC.O=S(=O)([O-])c1ccccc1.O=S(=O)([O-])c1ccccc1 (stereo partly drawn) [besylate, R,R′-atracurium besylate, reference compound]
% content of the 1R-cis,1′R-cis isomer in the sample, After 19 days: 80.5% | % content of the 1R-cis,1′R-cis isomer in the sample, After 34 days: 15.1% | % content of the 1R-cis,1′R-cis isomer in the sample, After 47 days: 7.9% | % content of the 1R-cis,1′R-cis isomer in the sample, Reference sample (t0): 97.2%

R,R′-atracurium perchlorate
% content of the 1R-cis,1′R-cis isomer in the sample, After 19 days: 92.1% | % content of the 1R-cis,1′R-cis isomer in the sample, After 34 days: 92.7% | % content of the 1R-cis,1′R-cis isomer in the sample, After 47 days: 92.3% | % content of the 1R-cis,1′R-cis isomer in the sample, Reference sample (t0): 98%

R,R′-atracurium tetrafluoroborate
% content of the 1R-cis,1′R-cis isomer in the sample, After 19 days: 88.8% | % content of the 1R-cis,1′R-cis isomer in the sample, After 34 days: 85.3% | % content of the 1R-cis,1′R-cis isomer in the sample, After 47 days: 82.6% | % content of the 1R-cis,1′R-cis isomer in the sample, Reference sample (t0): 98.2%

Source: patent publication US8354537B2, “R,R1-atracurium salts” (CHEMAGIS Ltd., priority 2007, dated 2013)
